Laboratory results published in patent EP0216105A1, “Diazaphosphorines, process for their preparation and their use as pesticide” (priority 1985, dated 1987).

Tests used:
[1] = system: Raupe (L5) der Art Spodoptera frugiperda; assay: Spodoptera test (treated artificial diet discs); format: in vivo; settings: Spodoptera frugiperda caterpillars (L5) on treated artificial diet; compared with the prior art; figures not given
Description: • Lösungsmittel: 3 Gewichtsteile Aceton • Emulgator: 1 Gewichtsteil Alkylarylpolyglykolether
Zur Herstellung einer zweckmäßigen Wirkstoffzubereitung vermischt man 1 Gewichtsteil Wirkstoff mit der angegebenen Menge Lösungsmittel und der angegebenen Menge Emulgator und verdünnt das Konzentrat mit Wasser auf die gewünschte Konzentrationen.
Kunstfutterscheiben, die in Plastikdosen liegen, werden durch Beträufeln mit der Wirkstoffzubereitung der gewünschten Konzentration behandelt. Nach Eindringen der Lösung besetzt man die Plastikdosen mit je 1 Raupe (L5) der Art Spodoptera frugiperda, wobei je Versuchsglied 5 Wiederholungen aufgestellt werden. Nach der Verpuppung legt man die Tiere eines Versuchsglieds in eine größere Dose. Nach der gewünschten Zeit wird die Abtötung in % bestimmt. Dabei bedeutet 100 X, daß alle Tiere abgetötet wurden; 0 X bedeutet, daß keine Tiere abgetötet wurden.

[2] = system: Mückenlarven (L4) (Aedes aegypti); assay: Aedes test (larvae in aqueous preparation); format: in vivo; settings: 20 Aedes aegypti larvae (L4) per glass; compared with the prior art; figures not given
Description: • Löcungcmittal: 3 Gewichtsteile Aceton • Emulgator: 1 Gewichtsteil Alkylarylpolyglykolether
Zur Herstellung einer zweckmäßigen Wirkstoffzubereitung vermischt man 1 Gawichtcteil Wirkstoff mit der angegebenen Menge Löcungcmittel und der angegebenen Menge Emulgator und verdünnt das Konzentrat mit Wasser auf die gewünschte Konzentrationen.
Man füllt die wässrigen Wirkctoffzubereitungen in Gläser und setzt anschließend 20 Mückenlarven (L4) (Aedes aegypti) in jedes Glas ein.
Nach der gewünschten Zeit wird die Abtötung in % bestimmt. Dabei bedeutet 100 X, daß alle Tiere abgetötet wurden; 0 % bedeutet, daß keine Tiere abgetötet wurden.

Caenorhabditis elegans = assay: In vitro nematode test; settings: Caenorhabditis elegans, 168 h, concentration at which reproduction is prevented; 7 days at 22°C; read-out: Dosis effectiva
Description: 10-^4 g Wirkstoff wurden in 1 ml Wasser oder 0,1 ml Dimethylsulfoxid (DMSO) gelöst. Diese Lösung wurde auf eine Replica-Platte gegeben. Dazu wurden 2 ml einer E-coli-Suspension gegeben, in der man 10-20 weibliche Tiere oder Larven von Caenorhabditis elegans in 0,5 ml M9 Pufferlösung gegeben hat. Die E-coli-Suspension wurde hergestellt indem man 300 ml einer Ubernachthalter eines Uracil-bedürftigen E-coli-Stammes mit 1,8 1 steriler M 9 Pufferlösung versetzte.
Der Versuchsansatz wurde 7 Tage bei 22°C inkubiert und danach ausgewertet. Es wurde bewertet inwieweit der Wirkstoff die Vermehrung beeinträchtigt und die Konzentration angegeben bei der die Vermehrung verhindert wird.

Strongyloides ratti = assay: In vivo nematode test, infected rats; set-up: species or system Ratten; settings: Strongyloides ratti, dose at which 95% of the parasites were killed, oral by gavage on three consecutive days from day 7 after infection, killed day 13, read-out: effektive Dosis
Description: Experimentell mit Strongyloides ratti infizierte Ratten werden 7 Tage nach der Infektion an drei aufeinanderfolgenden Tagen oral mittels Schlundsonde behandelt. Die Tiere werden 13 Tage nach der Infektion getötet und die Zahl der Parasiten bestimmt. Es wird die […] angegeben, bei der 95% der Parasiten abgetötet wurden (effektive Dosis): […]

Hymenolepis nana = assay: In vivo nematode test, infected mice; set-up: species or system Mäuse; settings: Rodentolepis nana, dose at which 95% of the parasites were killed, oral by gavage on four consecutive days from day 10 after infection, killed day 17, read-out: effektive Dosis
Description: Experimentell mit Hymenolepis nana infizierte Mäuse werden 10 Tage nach der Infektion an vier aufeinanderfolgenden Tagen oral mittels Schlundsonde behandelt. Die Tiere werden 17 Tage nach Infektion getötet und die Zahl der Parasiten bestimmt. Es wird die Wirkstoffkonzentration angegeben, bei der 95% der Parasiten abgetötet wurden (effektive Dosis): […]

Heterakis spumosa = assay: In vivo nematode test, infected mice; set-up: species or system Mäuse; settings: Ganguleterakis spumosa, dose at which 95% of the parasites were killed, oral by gavage on four consecutive days from day 32 after infection, killed day 39, read-out: effektive Dosis
Description: Experimentell mit Heterakis spumosa infizierte Mäuse werden 32 Tage nach der Infektion an vier aufeinanderfolgenden Tage oral mittels Schlundsonde behandelt. Die Tiere werden 39 Tage nach der Infektion getötet und die Zahl der Parasiten bestimmt. Es wird die Wirkstoffkonzentration angegeben bei der 95% der Parasiten abgetötet wurden (effektive Dosis): […]

Haemonchus contortus = assay: In vivo nematode test, infected sheep (egg count in faeces); set-up: species or system Schafe; settings: sheep infected with normally sensitive or benzimidazole-resistant Haemonchus contortus; oral, pure active substance in gelatin capsules; worm egg count before and after treatment; read-out: Dosis effectiva
Description: Haemonchus contortus 1 Schaf
Experimentell mit normal empfindlichen bzw. mit gegen Benzimidazol-Anthelmintika resistenten Haemonchus contortus infizierte Schafe wurden nach Ablauf der Präpatenzzeit des Parasiten behandelt. Die Wirkstoffe wurden als reiner Wirkstoff in Gelatinkapseln oral appliziert.
Der Wirkungsgrad wird dadurch bestimmt, daß man die mit dem Kot ausgeschiedenen Wurmeier vor und nach der Behandlung quantitativ auszählt.
Ein völliges Sistieren der Eiausscheidung nach der Behandlung bedeutet, daß die Würmer abgetrieben wurden oder so geschädigt sind, daß sie keine Eier mehr produzieren.

CN1C(=O)C(C(=O)Nc2ccc(Cl)c(C(F)(F)F)c2)C(=O)N(C)P1(=O)Oc1ccc(Cl)cc1 (stereo not shown) [Beispiel 9]
Abtötung in % [1]: überlegene Wirksamkeit gegenüber dem Stand der Technik | Abtötung in % [2]: überlegene Wirksamkeit gegenüber dem Stand der Technik | minimal effective concentration (Caenorhabditis elegans): 10 µg/mL | ED95 (Strongyloides ratti): 25 mg/kg | ED95 (Hymenolepis nana): 50 mg/kg | ED95 (Heterakis spumosa): 25 mg/kg | minimal effective dose (Haemonchus contortus): 25 mg/kg
